Like-named read-outs stand apart in the source and are kept apart here.
Experiments:
[1] = Lewis acidity measurement method (1): reaction rate constant of CoTPP and oxygen in the presence of Lewis acid; format: physicochemical
[2] = Decomposition stability of perfume components in sodium chlorite/benzalkonium chloride preparation, GC-MS, Examples 1 to 4 (perfume mixtures)
Method: Next, the prepared preparation was stored at 500° C. for 2 weeks to obtain an aged product. Further, GC-MS of the initial product (preparation before 2 weeks of storage) and the aged product (preparation after 2 weeks of storage) was measured as described below to observe the change in the content of the perfume components (additive component of the present invention).
An ODS cartridge column (Waters Corporation, trade name SepPAK) was conditioned with the first pass through of 10 mL of methanol and the second pass through of 10 mL of water. 100 mL of a sample solution (preparation prepared in the present example, i.e. the composition of the present invention) was passed through the conditioned column and adsorbed on the column. 3 mL of ethanol was further passed through to elute the composition adsorbed on the column. The elusion was analyzed by GC-MS and the area of the perfume component contained therein was measured. This measurement was performed for each of the initial product (preparation before 2 weeks of storage) and the aged product (preparation after 2 weeks of storage), and the area of the perfume component contained in each was compared.
• Column: InertCap Pure-WAX (trade name of the product manufactured by GL Sciences Inc.), 30 m, inner diameter 0.25 mm, film thickness 0.25 μm • Flow rate: Approximately 40 cm/sec • Column temperature: The temperature is raised at 5° C. per minute from 50° C. to 250° C. • Injection port temperature: 200° C. • Detector temperature: 250° C. • Injection amount: 1 μL • Split ratio: 1:10
Each preparation was then measured and analyzed by GC-MS according to the method described above.
“Area change rate (%)” was calculated from the calculated area values, based on the following Equation [1].
Area change rate (%)=initial product area value/aged product area value×100 [1]
Further, the decomposition stability of the additive components was evaluated in three stages, ∘, Δ and × as described below, according to the area change rate (%).

[3] = Decomposition stability of single perfume component in sodium chlorite/benzalkonium chloride preparation, GC-MS, Example 5; conditions: for Area change rate (%) / Decomposition stability of additive component: 50° C. for 2 weeks
Method: Next, the prepared preparation was stored at 50° C. for 2 weeks to obtain an aged product. Further, GC-MS of the initial product (preparation before 2 weeks of storage) and the aged product (preparation after 2 weeks of storage) were measured as described below to observe the change in the content of the perfume component (additive component of the present invention).
Each of the preparations was then measured and analyzed by GC-MS according to the method described above.
Further, the peak area measured by GC-MS of each perfume component in the initial product of the preparation of Example 5 was defined as the “initial product area value”, and the peak area measured by GC-MS of each perfume component in the aged product was defined as the “aged product area value”.

[4] = Examples 1 to 4, aged products after 2 weeks of storage, GC-MS
[5] = perfume component 5 ppm in preparation
[6] = perfume component 10 ppm in preparation
[7] = perfume component 50 ppm in preparation
[8] = perfume component 2 ppm in preparation
[9] = CoTPP and oxygen under the presence of Lewis acid, MeCN, room temperature
[10] = perfume component 3 ppm in preparation
[11] = perfume component 1 ppm in preparation
[12] = perfume component 6 ppm in preparation

CCCC[N+](CCCC)(CCCC)CCCC.F[P-](F)(F)(F)(F)F [tetrabutylammonium hexafluorophosphate]
kcat [1]: >0.1 M^−2 s^−1

Cc1ccccc1C(C)C [o-cymene, reference compound]
Fate of perfume component in aged product (in words) [2, 4]: no peaks were observed

Cc1ccc(C(C)C)c(O)c1 [Thymol]
Area change rate (%) [3, 5]: 76% | Decomposition stability of additive component [3, 5]: ∘ (70% or more)

CC(C)C12CCC(C)(O)C1C2 (centres unmarked) [Thujanol, reference compound]
Fate of perfume component in aged product (in words) [2]: no peaks were observed

Cc1coc2c1CCC(C)C2 (centres unmarked) [Menthofuran, reference compound]
Fate of perfume component in aged product (in words) [2, 4]: no peaks were observed

C=C(C)[C@@H]1CC[C@@H](C)C(=O)C1 [Dihydrocarvone]
Area change rate (%) ([3]; perfume component 4 ppm in preparation): 91%

CC1CCC(C(C)C)C(O)C1 (centres unmarked) [Menthol]
Area change rate (%) [3, 5]: 100% | Decomposition stability of additive component [3, 5]: ∘ (70% or more) | Area change rate (%) [3, 6]: 100% | Decomposition stability of additive component [3, 6]: ∘ (70% or more) | Area change rate (%) [3, 7]: 100% | Decomposition stability of additive component [3, 7]: ∘ (70% or more)

C=CCc1ccc(O)c(OC)c1 [Eugenol]
Area change rate (%) [3, 5]: 97%

CC1CCC(C(C)(C)O)CC1 (centres unmarked) [Dihydroterpineol]
Area change rate (%) [3, 8]: 99%

CC(C)(C)CC(C)(C)c1ccc(OCCOCC[N+](C)(C)Cc2ccccc2)cc1.[Cl-] [benzetonium chloride, benzethonium chloride]
kcat [1, 9]: 0.24 M^−2 s^−1

CC(C)[C@@H]1CC[C@@H](C)CC1=O [Menthone]
Area change rate (%) [3, 5]: 75% | Decomposition stability of additive component [3, 5]: ∘ (70% or more) | Area change rate (%) [3, 6]: 80% | Decomposition stability of additive component [3, 6]: ∘ (70% or more)

CC(C)=C1CC[C@@H](C)CC1=O [Pulegone]
Area change rate (%) [3, 5]: 100% | Decomposition stability of additive component [3, 5]: ∘ (70% or more)

OCc1ccccc1 [Benzyl alcohol]
Area change rate (%) [3, 10]: 84% | Decomposition stability of additive component [3, 10]: ∘ (70% or more)

CC(C)C12CCC(C)(CC1)O2 [1,4-cineole]
Area change rate (%) [3, 8]: 95%

CC12CCC(CC1)C(C)(C)O2 [Eucalyptol]
Area change rate (%) [3, 11]: 99% | Decomposition stability of additive component [3, 11]: ∘ (70% or more)

C=C(C)C1CC=C(C)C(=O)C1 (centres unmarked) [Carvone]
Area change rate (%) [3, 5]: 98% | Decomposition stability of additive component [3, 5]: ∘ (70% or more)

CC1=CC(=O)C(C(C)C)CC1 (centres unmarked) [Piperitone]
Area change rate (%) [3, 12]: 89% | Decomposition stability of additive component [3, 12]: ∘ (70% or more)

C=CC(C)(O)CCC=C(C)C (centres unmarked) [Linalool, reference compound]
Fate of perfume component in aged product (in words) ([3]; Example 5, aged product after 2 weeks at 50° C., GC-MS): remarkably decreased | Area change rate (%) [3, 5]: 0% | Fate of perfume component in aged product (in words) [2, 4]: no peaks were observed

benzalkonium chloride
kcat [1, 9]: 0.18 M^−2 s^−1
